The target in experiment [1] is T1, LexA-hHSF (Homo sapiens, UniProt Q00613).
T1 construct: expressed in transfected cells; the other entry of the earlier key: lexA (P0A7C2, LexA repressor)
T1 sequence (Q00613 with tags, fused parts or gaps): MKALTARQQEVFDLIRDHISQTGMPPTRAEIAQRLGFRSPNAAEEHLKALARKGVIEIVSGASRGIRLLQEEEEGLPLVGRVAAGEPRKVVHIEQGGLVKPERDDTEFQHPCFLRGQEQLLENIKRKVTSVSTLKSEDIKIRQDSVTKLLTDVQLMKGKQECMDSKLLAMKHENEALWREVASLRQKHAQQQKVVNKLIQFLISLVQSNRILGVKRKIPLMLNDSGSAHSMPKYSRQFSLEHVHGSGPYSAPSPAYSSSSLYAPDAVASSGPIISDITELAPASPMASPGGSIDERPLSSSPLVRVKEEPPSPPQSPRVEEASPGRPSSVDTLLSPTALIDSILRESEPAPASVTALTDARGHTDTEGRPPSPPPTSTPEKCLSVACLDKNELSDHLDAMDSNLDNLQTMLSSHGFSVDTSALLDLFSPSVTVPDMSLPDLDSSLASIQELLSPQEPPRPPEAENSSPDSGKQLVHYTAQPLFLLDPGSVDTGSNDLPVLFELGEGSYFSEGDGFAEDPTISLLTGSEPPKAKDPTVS
Put plainly: Z74 cell-based reporter assay: heat-induced FLuc expression controlled by chimeric LexA-HSF1. Particulars: IHSF 001 tested at 25 μM. An excerpt:
For screening this sublibrary, a cell-based assay was developed. We opted for a cell-based assay, because a cell-free assay would have had to be a DNA-binding assay. Such an assay would have limited discovery to molecules capable of interfering with the DNA-binding function of HSF1. This was thought to be too narrow a focus, considering that three of the four cavities identified in the HSF1 DNA-binding domain are not near the DNA interaction region. A straightforward cell-based assay, in which a HSF1-responsive gene would be assayed, was considered likely to be over-inclusive. Compounds would be scored as hits that inhibit any factor that is involved in HSF1 activation or prevents HSF1 deactivation. These factors include protein kinases, activators of protein phosphatases, factors affecting HSF1 mRNA stability, HSP90, HDAC6, etc. For developing a more discriminating cell-based assay, advantage was taken of the modular nature of HSF1. […] The cell-based assay developed (see below for the particular format employed) compared transactivation by wild type HSF1 and chimeric HSF1 in cells exposed to an HSF1-activating heat treatment in the presence of a sublibrary compound. A compound was scored as a hit, if it inhibited the activity of wild type HSF1 but not of chimeric HSF1.
The cell-based assay made use of HeLa-derived cell line Z74 that stably contains a gene for chimeric transcription factor LexA-(human) HSF1 under the control of a CMV early promoter, a firefly luciferase (flue) gene driven by a promoter responsive to the latter chimeric transcription factor and a Renilla luciferase (rluc) gene functionally linked to an hsp70b promoter and therefore controlled by endogenous HSF1 (FIG. 1A). As is shown in FIGS. 1B & C, the reporter genes responded similarly to heat dose, i.e., their activation depended on both duration of heat exposure and temperature of the exposure. […] Depletion of HSF1 (and LexA-HSF1) by siRNA supported the notion that this stress regulation is mediated by HSF1 (and LexA-HSF1). Therefore, the Z74 line was well suited for use in a screening assay aimed at discovering molecules that inhibit heat-induced HSF1 activity through interaction with the transcription factor's DNA-binding domain.
The compounds of the afore-mentioned biased sublibrary were screened in cell line Z74 at 12.5 and 25 μM concentrations. Typically, Z74 cultures in 96-well plates were exposed to compound or vehicle for 2 h, heat-treated at 43.0° C. for 30 min, and incubated further for 6 h at 37° C. to allow for accumulation of the luciferases. RLuc and FLuc activities were determined, typically using the Dual-Glo® Luciferase Assay System (Promega Corp., Madison, Wis.), and reading luciferase light counts in a Wallac Microbeta Trilux-1450 Luminometer (PerkinElmer, Waltham, Mass.). IHSF 001 was one of two library compounds that inhibited RLuc expression but not FLuc expression in heat-treated Z74 cells (Table 1; FIG. 2A). Therefore, IHSF 001 is an inhibitor of HSF1 function that specifically acts through the HSF1 DNA-binding domain. […] A corroborating experiment utilized a cell line containing an hsp70b promoter-driven fluc gene. […] IHSF 001 is (E)-ethyl 4-oxo-4-(thiazol-2-ylamino)but-2-enoate. The compound can be obtained from commercial sources (e.g., AKE-PB-90340538, Akos).
(In a reporter assay the amount or activity of a reporter protein is the signal.)

Experiment [2] has as its system HeLa cells. Put plainly: Trypan Blue staining, live and necrotic cells. Type of experiment: cell-based, human. The protocol: FIG. 6. (A) HeLa cell cultures were mock-exposed (−) or exposed to the indicated concentrations of compound 115 for 24 (left panel) or 96 (right panel) hours. Cell viability of total cultures, floating cells and attached cells was assayed using an Alamar Blue assay. (B) HeLa cell cultures were mock-exposed (−) or exposed to the indicated concentrations of compound 115 for 15-96 hours. Trypan Blue dye exclusion was employed to determine numbers of live cells (left panel) and relative levels of necrotic cells (right panel). (C) HeLa cell cultures were mock-exposed (−) or exposed to the indicated concentrations of compound 115 for 6 and 24 h. Shown are relative levels of early apoptotic cells (annexin-positive, 7 aminoactinomycin D-negative). (D) Flow cytometric analysis of DNA of HeLa cell cultures mock-exposed (−) or exposed to the indicated concentrations of compound 115 for 6, 15 and 24 hours. Relative levels of apoptotic cells are indicated.
Further studies were aimed at finding out whether IHSF-exposed cancer cells were only growth-arrested or were actually killed and, if they were killed, by what mechanism. […] The viability signal (in whole cultures and, more dramatically, when only attached cells were analyzed) decreased as a function of IHSF concentration. […] Stained (necrotic) and unstained (live) cells were counted (FIG. 6B). […]

Structures are written as SMILES.

For orientation: inhibition means the drop in the measured response relative to a control, in per cent. Low values mean a weak effect, high ones a strong effect. As to `CCOC(=O)/C=C/C(=O)Nc1nccs1` [IHSF 001, (E)-ethyl 4-oxo-4-(thiazol-2-ylamino)but-2-enoate], the inhibition at 25 µM in experiment [1] (Experiment No. 1) worked out at 3%; in experiment [1] (Experiment No. 2), 0%; in experiment [1] (Experiment No. 3) it was 0%; in experiment [1] (Experiment No. 4), 0%; in experiment [1] (Experiment No. 5), 0%; in experiment [1] (Experiment No. 6), 0%. Moreover, the inhibition at 25 µM came to 0% in experiment [1] (Experiment No. 7), 0% in experiment [1] (Experiment No. 8) and 15% in experiment [1] (Experiment No. 9).
On to `CN(C(=O)/C=C/C1=NCCCO1)c1ncc(-c2cccnc2)s1` [IHSF 115, (E)-3-(5,6-Dihydro-4H-[1,3]oxazin-2-yl)-N-methyl-N-(5-pyridin-3-yl-thiazol-2-yl)-acrylamide], for which, in experiment [2] (15-hour exposure to 3.125 μM), the “necrotic HeLa cells (Trypan Blue)” value is listed as “increase in necrotic cells was already apparent”. Moreover, the “numbers of live and necrotic HeLa cells (Trypan Blue)” value in experiment [2] (exposure for 15, 24 and 96 hours) is “caused numbers of live cells to decrease and numbers of necrotic cells to increase in a concentration- and time-dependent fashion”.

The record behind these values is patent US11597708B2, “Inhibitors of heat shock factors and uses thereof” (HSF Pharmaceuticals SA, priority 2016, dated 2023).
